# Measurements as given in ChEMBL document CHEMBL3612057, “Discovery of indolizines containing triazine moiety as new leads for the development of antitumoral agents targeting mitotic events” (2015).
# Activity calls are given as the source filed them. The rule behind the calls is not given here.
# Assays:
# NCI-H522 = experiment: Cytotoxicity against human NCI-H522 cells assessed as growth inhibition at 10 uM after 24 hrs by SRB assay; type: functional
# HOP-92 [1] = experiment: Cytotoxicity against human HOP92 cells after 48 hrs by SRB assay; type: functional; settings: HOP-92, 48 h
# OVCAR-4 = experiment: Cytotoxicity against human OVCAR4 cells assessed as growth inhibition at 10 uM after 24 hrs by SRB assay; type: functional
# U-251 = experiment: Cytotoxicity against human U251 cells assessed as growth inhibition at 10 uM after 24 hrs by SRB assay; type: functional
# T47D = experiment: Cytotoxicity against human T47D cells assessed as growth inhibition at 10 uM after 24 hrs by SRB assay; type: functional; settings: for inhibition of growth at 10 µM: read-out: GI
# CAKI-1 = experiment: Cytotoxicity against human CAKI-1 cells assessed as growth inhibition at 10 uM after 24 hrs by SRB assay; type: functional; settings: for inhibition of growth at 10 µM: CAKI-1, 24 h, read-out: GI
# NCI-H226 = experiment: Cytotoxicity against human NCI-H226 cells assessed as growth inhibition at 10 uM after 24 hrs by SRB assay; type: functional
# HL-60(TB) = experiment: Cytotoxicity against human HL-60(TB) cells assessed as growth inhibition at 10 uM after 24 hrs by SRB assay; type: functional
# SNB-75 [2] = experiment: Cytotoxicity against human SNB75 cells assessed as growth inhibition at 10 uM after 24 hrs by SRB assay; type: functional; settings: SNB-75, 24 h, read-out: GI
# HOP-92 [3] = experiment: Cytotoxicity against human HOP92 cells assessed as growth inhibition at 10 uM after 24 hrs by SRB assay; type: functional
# A549 = experiment: Cytotoxicity against human A549 cells assessed as growth inhibition at 10 uM after 24 hrs by SRB assay; type: functional
# HOP-62 [4] = experiment: Cytotoxicity against human HOP62 cells after 48 hrs by SRB assay; type: functional; settings: HOP-62, 48 h
# 786-0 [5] = experiment: Cytotoxicity against human 786-0 cells assessed as growth inhibition at 10 uM after 24 hrs by SRB assay; type: functional
# RXF 393 [6] = experiment: Cytotoxicity against human RXF393 cells after 48 hrs by SRB assay; type: functional; settings: RXF 393, 48 h
# NCI-H460 = experiment: Cytotoxicity against human NCI-H460 cells assessed as growth inhibition at 10 uM after 24 hrs by SRB assay; type: functional
# Malme-3M = experiment: Cytotoxicity against human MALME-3M cells assessed as growth inhibition at 10 uM after 24 hrs by SRB assay; type: functional
# SK-OV-3 = experiment: Cytotoxicity against human SKOV3 cells assessed as growth inhibition at 10 uM after 24 hrs by SRB assay; type: functional
# RPMI-8226 = experiment: Cytotoxicity against human RPMI8226 cells assessed as growth inhibition at 10 uM after 24 hrs by SRB assay; type: functional
# UACC-62 = experiment: Cytotoxicity against human UACC62 cells assessed as growth inhibition at 10 uM after 24 hrs by SRB assay; type: functional
# 786-0 [7] = experiment: Cytotoxicity against human 786-0 cells after 48 hrs by SRB assay; type: functional; settings: 786-0, 48 h
# MCF7 = experiment: Cytotoxicity against human MCF7 cells assessed as growth inhibition at 10 uM after 24 hrs by SRB assay; type: functional; settings: for inhibition of growth at 10 µM: MCF7, 24 h, read-out: GI
# SNB-75 [8] = experiment: Cytotoxicity against human SNB75 cells after 48 hrs by SRB assay; type: functional; settings: SNB-75, 48 h
# SK-MEL-28 = experiment: Cytotoxicity against human SK-MEL-28 cells assessed as growth inhibition at 10 uM after 24 hrs by SRB assay; type: functional
# CCRF-CEM = experiment: Cytotoxicity against human CCRF-CEM cells assessed as growth inhibition at 10 uM after 24 hrs by SRB assay; type: functional
# OVCAR-3 = experiment: Cytotoxicity against human OVCAR3 cells assessed as growth inhibition at 10 uM after 24 hrs by SRB assay; type: functional
# UACC-257 = experiment: Cytotoxicity against human UACC257 cells assessed as growth inhibition at 10 uM after 24 hrs by SRB assay; type: functional; settings: for inhibition of growth at 10 µM: UACC-257, 24 h, read-out: GI
# TK-10 = experiment: Cytotoxicity against human TK10 cells assessed as growth inhibition at 10 uM after 24 hrs by SRB assay; type: functional
# SR = experiment: Cytotoxicity against human SR cells assessed as growth inhibition at 10 uM after 24 hrs by SRB assay; type: functional
# HCT-116 = experiment: Cytotoxicity against human HCT116 cells assessed as growth inhibition at 10 uM after 24 hrs by SRB assay; type: functional
# K562 = experiment: Cytotoxicity against human K562 cells assessed as growth inhibition at 10 uM after 24 hrs by SRB assay; type: functional
# ACHN = experiment: Cytotoxicity against human ACHN cells assessed as growth inhibition at 10 uM after 24 hrs by SRB assay; type: functional
# [9] = (§1) Cytotoxicity against human Hs578T cells assessed as growth inhibition at 10 uM after 24 hrs by SRB assay; type: functional; settings: Hs-578T, read-out: GI
# RXF 393 [10] = experiment: Cytotoxicity against human RXF393 cells assessed as growth inhibition at 10 uM after 24 hrs by SRB assay; type: functional; settings: for inhibition of growth at 10 µM: RXF 393, 24 h, read-out: GI
# HOP-62 [11] = experiment: Cytotoxicity against human HOP62 cells assessed as growth inhibition at 10 uM after 24 hrs by SRB assay; type: functional
# NCI/ADR-RES = experiment: Cytotoxicity against human NCI/ADR-RES cells assessed as growth inhibition at 10 uM after 24 hrs by SRB assay; type: functional
# PC-3 = experiment: Cytotoxicity against human PC3 cells assessed as growth inhibition at 10 uM after 24 hrs by SRB assay; type: functional; settings: for inhibition of growth at 10 µM: PC-3, 24 h, read-out: GI
# OVCAR-8 = experiment: Cytotoxicity against human OVCAR8 cells assessed as growth inhibition at 10 uM after 24 hrs by SRB assay; type: functional
# SF-295 = experiment: Cytotoxicity against human SF295 cells assessed as growth inhibition at 10 uM after 24 hrs by SRB assay; type: functional
# SF-539 = experiment: Cytotoxicity against human SF539 cells assessed as growth inhibition at 10 uM after 24 hrs by SRB assay; type: functional
# Ovis aries = species: Ovis aries; experiment: Inhibition of sheep tubulin polymerization at 100 uM by fluorescence assay
# SK-MEL-5 = experiment: Cytotoxicity against human SK-MEL-5 cells assessed as growth inhibition at 10 uM after 24 hrs by SRB assay; type: functional
# MDA-MB-231 = experiment: Cytotoxicity against human MDA-MB-231 cells assessed as growth inhibition at 10 uM after 24 hrs by SRB assay; type: functional; settings: MDA-MB-231, 24 h, read-out: GI
# MDA-MB-435 = experiment: Cytotoxicity against human MDA-MB-435 cells assessed as growth inhibition at 10 uM after 24 hrs by SRB assay; type: functional
# Hs-578T = experiment: as §1; type: functional
compound,measurement,setting,value
COc1nc(OC)nc(-c2cc(C(=O)c3ccc(Br)cc3)n3ccc4ccccc4c23)n1,growth inhibition (GI),NCI-H522,inactive
same,GI50,HOP-92 [1],13.2 µM
same,inhibition of growth at 10 µM,"OVCAR-4; OVCAR-4, 24 h, read-out: GI",33%
same,growth inhibition (GI),U-251,inactive
same,inhibition of growth at 10 µM,T47D,38%
same,inhibition of growth at 10 µM,CAKI-1,44%
same,inhibition of growth at 10 µM,"NCI-H226; NCI-H226, 24 h, read-out: GI",28%
same,growth inhibition (GI),HL-60(TB),inactive
same,inhibition of growth at 10 µM,SNB-75 [2],75%
same,growth inhibition (GI),HOP-92 [3],inactive
same,inhibition of growth at 10 µM,"A549; A549, 24 h, read-out: GI",55%
same,GI50,HOP-62 [4],22.8 µM
same,inhibition of growth at 10 µM,"786-0 [5]; 786-0, 24 h, read-out: GI",81%
same,GI50,RXF 393 [6],3.57 µM
same,inhibition of growth at 10 µM,"NCI-H460; NCI-H460, 24 h, read-out: GI",71%
same,inhibition of growth at 10 µM,Malme-3M; read-out: GI,67%
same,growth inhibition (GI),SK-OV-3,inactive
same,growth inhibition (GI),RPMI-8226,inactive
same,growth inhibition (GI),UACC-62,inactive
same,GI50,786-0 [7],4.06 µM
same,inhibition of growth at 10 µM,MCF7,60%
same,GI50,SNB-75 [8],2.58 µM
same,inhibition of growth at 10 µM,"SK-MEL-28; SK-MEL-28, 24 h, read-out: GI",52%
same,growth inhibition (GI),CCRF-CEM,inactive
same,inhibition of growth at 10 µM,"OVCAR-3; OVCAR-3, 24 h, read-out: GI",51%
same,inhibition of growth at 10 µM,UACC-257,32%
same,growth inhibition (GI),TK-10,inactive
same,growth inhibition (GI),SR,inactive
same,growth inhibition (GI),HCT-116,inactive
same,growth inhibition (GI),K562,inactive
same,inhibition of growth at 10 µM,ACHN; read-out: GI,29%
same,inhibition of growth at 10 µM,[9],65%
same,inhibition of growth at 10 µM,RXF 393 [10],81%
same,growth inhibition (GI),HOP-62 [11],inactive
same,inhibition of growth at 10 µM,NCI/ADR-RES; read-out: GI,46%
same,inhibition of growth at 10 µM,PC-3,58%
same,inhibition of growth at 10 µM,"OVCAR-8; OVCAR-8, 24 h, read-out: GI",50%
same,inhibition of growth at 10 µM,"SF-295; SF-295, 24 h, read-out: GI",76%
same,growth inhibition (GI),SF-539,inactive
same,inhibition,Ovis aries,inactive
same,growth inhibition (GI),SK-MEL-5,inactive
same,inhibition of growth at 10 µM,MDA-MB-231,96%
same,growth inhibition (GI),MDA-MB-435,inactive
COc1nc(OC)nc(-c2cc(C(=O)c3ccc(Br)cc3)n3ccc(C#N)cc23)n1,growth inhibition (GI),NCI-H522,inactive
same,growth inhibition (GI),OVCAR-4,inactive
same,growth inhibition (GI),U-251,inactive
same,growth inhibition (GI),T47D,inactive
same,growth inhibition (GI),CAKI-1,inactive
same,growth inhibition (GI),NCI-H226,inactive
same,growth inhibition (GI),HL-60(TB),inactive
same,inhibition of growth at 10 µM,SNB-75 [2],27%
same,growth inhibition (GI),HOP-92 [3],inactive
same,growth inhibition (GI),A549,inactive
same,growth inhibition (GI),786-0 [5],inactive
same,growth inhibition (GI),NCI-H460,inactive
same,growth inhibition (GI),Malme-3M,inactive
same,growth inhibition (GI),SK-OV-3,inactive
same,growth inhibition (GI),RPMI-8226,inactive
same,growth inhibition (GI),UACC-62,inactive
same,growth inhibition (GI),MCF7,inactive
same,growth inhibition (GI),SK-MEL-28,inactive
same,growth inhibition (GI),CCRF-CEM,inactive
same,growth inhibition (GI),OVCAR-3,inactive
same,inhibition of growth at 10 µM,UACC-257,11%
same,growth inhibition (GI),TK-10,inactive
same,growth inhibition (GI),SR,inactive
same,growth inhibition (GI),HCT-116,inactive
same,growth inhibition (GI),K562,inactive
same,growth inhibition (GI),ACHN,inactive
same,growth inhibition (GI),Hs-578T,inactive
same,inhibition of growth at 10 µM,RXF 393 [10],14%
same,growth inhibition (GI),HOP-62 [11],inactive
same,growth inhibition (GI),NCI/ADR-RES,inactive
same,growth inhibition (GI),PC-3,inactive
same,growth inhibition (GI),OVCAR-8,inactive
same,growth inhibition (GI),SF-295,inactive
same,growth inhibition (GI),SF-539,inactive
same,inhibition,Ovis aries,inactive
same,growth inhibition (GI),SK-MEL-5,inactive
same,inhibition of growth at 10 µM,MDA-MB-231,11%
same,growth inhibition (GI),MDA-MB-435,inactive
COc1nc(OC)nc(-c2cc(C(=O)c3ccc(C)cc3)n3ccccc23)n1,growth inhibition (GI),NCI-H522,inactive
same,growth inhibition (GI),OVCAR-4,inactive
same,growth inhibition (GI),U-251,inactive
same,inhibition of growth at 10 µM,T47D,15%
same,inhibition of growth at 10 µM,CAKI-1,43%
same,growth inhibition (GI),NCI-H226,inactive
same,growth inhibition (GI),HL-60(TB),inactive
same,inhibition of growth at 10 µM,SNB-75 [2],18%
same,growth inhibition (GI),HOP-92 [3],inactive
same,growth inhibition (GI),A549,inactive
same,growth inhibition (GI),786-0 [5],inactive
same,growth inhibition (GI),NCI-H460,inactive
same,growth inhibition (GI),Malme-3M,inactive
same,growth inhibition (GI),SK-OV-3,inactive
same,inhibition of growth at 10 µM,"RPMI-8226; RPMI-8226, 24 h, read-out: GI",26%
same,growth inhibition (GI),UACC-62,inactive
same,inhibition of growth at 10 µM,MCF7,10%
same,growth inhibition (GI),SK-MEL-28,inactive
same,inhibition of growth at 10 µM,CCRF-CEM; read-out: GI,13%
same,growth inhibition (GI),OVCAR-3,inactive
same,growth inhibition (GI),UACC-257,inactive
same,growth inhibition (GI),TK-10,inactive
same,inhibition of growth at 10 µM,SR; read-out: GI,22%
same,inhibition of growth at 10 µM,"HCT-116; HCT-116, 24 h, read-out: GI",12%
same,growth inhibition (GI),K562,inactive
same,growth inhibition (GI),ACHN,inactive
same,growth inhibition (GI),Hs-578T,inactive
same,growth inhibition (GI),RXF 393 [10],inactive
same,growth inhibition (GI),HOP-62 [11],inactive
same,growth inhibition (GI),NCI/ADR-RES,inactive
same,inhibition of growth at 10 µM,PC-3,13%
same,growth inhibition (GI),OVCAR-8,inactive
same,growth inhibition (GI),SF-295,inactive
same,growth inhibition (GI),SF-539,inactive
same,inhibition,Ovis aries,inactive
same,inhibition of growth at 10 µM,"SK-MEL-5; SK-MEL-5, 24 h, read-out: GI",19%
same,inhibition of growth at 10 µM,MDA-MB-231,35%
same,growth inhibition (GI),MDA-MB-435,inactive
